Experimental data reported in DBAASP.
Converted amounts (≈) assume the structure as drawn.

Experiments:
Test in all cases: ≥ marks a high value that may be exact or a test limit, other limits are often not marked, values filed in µg/mL are converted to µM
[1] = system: Escherichia coli ATCC 25922
[2] = system: Staphylococcus aureus ATCC 29213
Staphylococcus aureus = system: Staphylococcus aureus
[3] = system: Staphylococcus epidermidis ATCC 12228
Escherichia coli = system: Escherichia coli
Pseudomonas aeruginosa = system: Pseudomonas aeruginosa

| MIC [1] [µM] | MIC [2] [µM] | MIC (Staphylococcus aureus) [µM] | MIC [3] [µM] | MIC (Escherichia coli) [µM] | MIC (Pseudomonas aeruginosa) [µM] | SMILES |
| --- | --- | --- | --- | --- | --- | --- |
| 5 (≈ 8.39 µg/mL) | > 40 |  |  |  |  | CC[C@H](C)[C@H](NC(=O)[C@H](CCCN=C(N)N)NC(=O)[C@H](CCCCN)NC(=O)[C@@H](N)Cc1ccccc1)C(=O)NCC(=O)N[C@@H](CCC(N)=O)C(=O)N[C@@H](CCCN=C(N)N)C(=O)N[C@H](C(=O)N[C@@H](CCCCN)C(=O)N[C@@H](CC(=O)O)C(=O)N[C@@H](Cc1ccccc1)C(=O)N[C@@H](CC(C)C)C(=O)N[C@@H](CCCN=C(N)N)C(=O)O)[C@@H](C)CC [FKRIGQRIKDFLR] |
| 10 (≈ 16.8 µg/mL) | > 40 |  |  |  |  | CC[C@H](C)[C@H](NC(=O)[C@H](CCCN=C(N)N)NC(=O)[C@H](CCCCN)NC(=O)[C@@H](N)Cc1ccccc1)C(=O)N[C@H](C(=O)N[C@@H](CCC(N)=O)C(=O)N[C@@H](CCCN=C(N)N)C(=O)N[C@@H](C)C(=O)N[C@@H](CCCCN)C(=O)N[C@@H](CC(=O)O)C(=O)N[C@@H](Cc1ccccc1)C(=O)N[C@@H](CC(C)C)C(=O)N[C@@H](CCCN=C(N)N)C(=O)O)C(C)C [FKRIVQRAKDFLR] |
| 20 (≈ 34.4 µg/mL) | > 40 |  |  |  |  | CC[C@H](C)[C@H](NC(=O)[C@H](CCCN=C(N)N)NC(=O)[C@H](CCC(N)=O)NC(=O)[C@@H](NC(=O)[C@H](CC(N)=O)NC(=O)[C@H](CCCN=C(N)N)NC(=O)[C@H](CCCCN)NC(=O)[C@@H](N)Cc1ccccc1)C(C)C)C(=O)N[C@@H](CCCCN)C(=O)N[C@@H](CC(=O)O)C(=O)N[C@@H](Cc1ccccc1)C(=O)N[C@@H](CC(C)C)C(=O)N[C@@H](CCCN=C(N)N)C(=O)O [FKRNVQRIKDFLR] |
| 1.51 (≈ 4 µg/mL) | 0.533 (≈ 1.41 µg/mL) | 55 (≈ 146 µg/mL) |  |  |  | CC[C@H](C)[C@H](NC(=O)[C@H](Cc1ccccc1)NC(=O)[C@@H]1CCCN1C(=O)[C@H](CC(C)C)NC(=O)[C@@H](N)Cc1ccccc1)C(=O)N[C@@H](C)C(=O)N[C@@H](CCCN=C(N)N)C(=O)N[C@@H](CC(C)C)C(=O)N[C@@H](C)C(=O)N[C@@H](C)C(=O)N[C@@H](CCCCN)C(=O)N[C@H](C(=O)N[C@@H](Cc1ccccc1)C(=O)N1CCC[C@H]1C(=O)N[C@@H](CO)C(=O)N[C@H](C(=O)N[C@H](C(=O)N[C@H]1CSSC[C@@H](C(=O)O)NC(=O)[C@H](CCCCN)NC(=O)[C@H](CCCCN)NC(=O)[C@H]([C@@H](C)O)NC(=O)[C@H](C(C)C)NC(=O)[C@H](CO)NC1=O)[C@@H](C)CC)[C@@H](C)CC)C(C)C [FLPFIARLAAKVFPSIICSVTKKC] |
| 10 (≈ 28.1 µg/mL) |  |  | 1.25 (≈ 3.51 µg/mL) |  |  | CC[C@H](C)[C@H](NC(=O)CN)C(=O)N[C@@H](CCCCN)C(=O)N[C@@H](CCCCN)C(=O)N[C@@H](Cc1c[nH]c2ccccc12)C(=O)N[C@@H](CC(C)C)C(=O)N[C@@H](Cc1cnc[nH]1)C(=O)N[C@@H](CCCCN)C(=O)N1CCC[C@H]1C(=O)N[C@@H](CCCCN)C(=O)N[C@@H](CCCCN)C(=O)N[C@@H](Cc1ccccc1)C(=O)N1CCC[C@H]1C(=O)N[C@@H](CCCCN)C(=O)N[C@@H](CCCCN)C(=O)N[C@@H](Cc1ccccc1)C(=O)N[C@H](C(=O)N[C@@H](CCCCN)C(=O)N[C@@H](CCCCN)C(=O)N[C@H](C(=O)N[C@@H](CCSC)C(=O)N[C@@H](CC(N)=O)C(=O)N[C@@H](CO)C(N)=O)[C@@H](C)CC)C(C)C [GIKKWLHKPKKFPKKFVKKIMNS] |
|  |  | > 160 |  | > 160 |  | CC[C@H](C)[C@H](NC(=O)[C@H](Cc1ccccc1)NC(=O)CNC(=O)[C@H](CCCCN)NC(=O)[C@H](C)NC(=O)[C@H](Cc1ccccc1)NC(=O)[C@H](CCCCN)NC(=O)[C@H](CCCCN)NC(=O)[C@@H](NC(=O)[C@H](CO)NC(=O)[C@H](Cc1cnc[nH]1)NC(=O)[C@H](CC(C)C)NC(=O)[C@@H](NC(=O)[C@H](CCC(=O)O)NC(=O)[C@H](CCCCN)NC(=O)[C@H](CC(C)C)NC(=O)CN)C(C)C)[C@@H](C)O)C(=O)N[C@H](C(=O)NCC(=O)N[C@@H](CC(C)C)C(=O)N[C@H](C(=O)NCC(=O)N[C@@H](CCC(N)=O)C(=O)O)[C@@H](C)O)[C@@H](C)O [GLKEVLHSTKKFAKGFITGLTGQ] |
|  |  | 80 (≈ 208 µg/mL) |  | 40 (≈ 104 µg/mL) |  | CC[C@H](C)[C@H](NC(=O)[C@@H](NC(=O)[C@@H](NC(=O)[C@H](Cc1c[nH]c2ccccc12)NC(=O)[C@@H](NC(=O)CN)C(C)C)[C@@H](C)O)[C@@H](C)O)C(=O)N[C@@H](CC(C)C)C(=O)NCC(=O)NCC(=O)N[C@@H](CC(C)C)C(=O)N[C@@H](CCCCN)C(=O)N[C@@H](CCCCN)C(=O)N[C@@H](Cc1ccccc1)C(=O)N[C@@H](C)C(=O)N[C@@H](CCCCN)C(=O)NCC(=O)NCC(=O)N[C@@H](CC(C)C)C(=O)N[C@@H](CCC(=O)O)C(=O)N[C@@H](C)C(=O)N[C@@H](CC(C)C)C(=O)N[C@H](C(=O)N[C@@H](CC(N)=O)C(=O)N1CCC[C@H]1C(=O)N[C@@H](CCCCN)C(=O)O)[C@@H](C)O [GVWTTILGGLKKFAKGGLEALTNPK] |
|  |  | 1.4 (≈ 2.77 µg/mL) |  | 5.6 (≈ 11.1 µg/mL) | 11.2 (≈ 22.2 µg/mL) | CC[C@H](C)[C@H](NC(=O)[C@H](C)NC(=O)[C@H](CCCCN)NC(=O)[C@H](C)NC(=O)[C@@H](NC(=O)[C@H](CO)NC(=O)[C@H](CCCCN)NC(=O)[C@@H](NC(=O)[C@H](Cc1c[nH]c2ccccc12)NC(=O)[C@H](CCCCN)NC(=O)[C@H](CC(C)C)NC(=O)[C@@H](NC(=O)[C@H](CO)NC(=O)[C@H](CCCCN)NC(=O)[C@H](C)NC(=O)[C@@H](NC(=O)[C@H](C)NC(=O)[C@@H](N)CCCCN)[C@@H](C)CC)[C@@H](C)CC)[C@@H](C)CC)[C@@H](C)CC)C(N)=O [KAIAKSILKWIKSIAKAI] |
| 3.54 (≈ 5.98 µg/mL) | 14.1 (≈ 23.9 µg/mL) |  |  |  |  | CC(=O)N[C@@H](CC(C)C)C(=O)N[C@@H](CCCCN)C(=O)N[C@@H](CCCCN)C(=O)N[C@@H](CC(C)C)C(=O)N1CCC[C@H]1C(=O)N[C@@H](CCCCN)C(=O)N[C@@H](CC(C)C)C(=O)N[C@@H](CO)C(=O)N[C@@H](CCCCN)C(=O)N[C@@H](CCCCN)C(=O)N[C@@H](CC(C)C)C(=O)N[C@@H](CC(C)C)C(=O)N[C@@H](CCCCN)C(=O)N[C@@H](CC(C)C)C(N)=O [LKKLPKLSKKLLKL] |
| > 257 | > 257 |  |  |  |  | CC[C@H](C)[C@H](NC(=O)[C@@H](NC(=O)[C@H](C)NC(=O)[C@H](CCCN=C(N)N)NC(=O)[C@H](CC(N)=O)NC(=O)[C@H](Cc1ccccc1)NC(=O)[C@H](CO)NC(=O)[C@@H](NC(=O)[C@H](CCCN=C(N)N)NC(=O)[C@H](CCCN=C(N)N)NC(=O)[C@H](CCCN=C(N)N)NC(=O)[C@H](CC(C)C)NC(=O)[C@H](CCC(=O)O)NC(=O)[C@H](CC(N)=O)NC(=O)[C@H](CCC(=O)O)NC(=O)[C@H](CCC(=O)O)NC(=O)[C@H](CC(N)=O)NC(=O)[C@@H](N)CC(N)=O)C(C)C)C(C)C)C(=O)N[C@@H](Cc1cnc[nH]1)C(=O)N[C@@H](CO)C(=O)N[C@@H](CC(C)C)C(=O)N[C@@H](CC(C)C)C(=O)NCC(N)=O [NNEENELRRRVSFNRAVIHSLLG] |
| 8 (≈ 15 µg/mL) |  | 2.13 (≈ 4 µg/mL) |  | 10.7 (≈ 20 µg/mL) |  | CC(C)C[C@H](NC(=O)[C@H](Cc1ccccc1)NC(=O)[C@@H]1CCCN1C(=O)[C@H](Cc1c[nH]c2ccccc12)NC(=O)[C@H](Cc1c[nH]c2ccccc12)NC(=O)[C@H](Cc1c[nH]c2ccccc12)NC(=O)[C@H](C)NC(=O)[C@H](Cc1ccccc1)NC(=O)[C@H](CCCN=C(N)N)NC(=O)[C@H](CCCN=C(N)N)NC(=O)[C@@H](N)C(C)C)C(=O)N[C@@H](CCCN=C(N)N)C(=O)N[C@@H](CCCN=C(N)N)C(N)=O [VRRFAWWWPFLRR] |
